Active and inactive are the calls of the source.
Columns and labels:
[1] = tested on: Mus musculus; assay: In vivo inhibition of EGFR L858R/T790M mutant in N-(3-((6-Fluoro-2-((4-(4-methylpiperazin-1-yl)phenyl)amino)quinazolin-4-yl)amino)phenyl)acrylamide-resistant human NCI-H1975 cells xenografted BALB/c mouse assessed as inhibition of EGFR phosphorylation at Tyr1068 residue in tumor at 20 mg/kg/day, ip in presence of ACK1 inhibitor, dasatinib by immunoblot analysis; assay type: functional, organism-based
[2] = tested on: Epidermal growth factor receptor (Homo sapiens), P00533 [L858R,T790M]; assay: Inhibition of human partial length EGFR (R669 to V1011 residues) L858R/T790M mutant expressed in mammalian expression system assessed as residual activity at 1 uM by KINOMEscan analysis
[3] = tested on: NCI-H1975; assay: Antitumor activity against human NCI-H1975 cells xenografted in BALB/c mouse assessed as decrease in Ki-67 expression in tumor at 5 to 20 mg/kg/day, ip by immunohistochemistry; assay type: functional, organism-based; settings: dose 5-20 mg/kg/day
[4] = tested on: Mus musculus; assay: In vivo inhibition of EGFR L858R/T790M mutant in NCI-H1975 cells xenografted BALB/c mouse assessed as inhibition of EGFR phosphorylation at Tyr1068 residue at 5 to 20 mg/kg/day, ip in tumor by immunohistochemistry; assay type: functional, organism-based; settings: dose 5-20 mg/kg/day
[5] = Toxicity in BALB/c mouse xenografted with human NCI-H1975 cells assessed as change in heart morphological changes at 5 to 20 mg/kg/day, ip by hematoxylin-eosin staining based analysis; assay type: organism-based; settings: in vivo, dose 5-20 mg/kg/day
[6] = tested on: NCI-H1975; assay: Antiproliferative activity against human NCI-H1975 cells harboring EGFR L858R/T790M mutant assessed as reduction in cell viability measured after 72 hrs by MTT assay; assay type: functional, cell-based; settings: NCI-H1975, 72 h
[7] = tested on: Mus musculus; assay: In vivo inhibition of EGFR L858R/T790M mutant in NCI-H1975 cells xenografted BALB/c mouse assessed as inhibition of AKT phosphorylation at Ser473 residue in tumor at 20 mg/kg/day, ip by immunoblot analysis; assay type: functional, organism-based
[8] = tested on: NCI-H1975; assay: Antitumor activity against human NCI-H1975 cells xenografted in BALB/c mouse assessed as tumor regression at 5 to 10 mg/kg/day, ip; assay type: functional, organism-based; settings: dose 5-10 mg/kg/day
[9] = biological target: T1, Epidermal growth factor receptor (Homo sapiens, UniProt P00533); assay: Inhibition of wild type EGFR in human A549 cells assessed as inhibition of EGF-induced ERK-1/2 phosphorylation at 10 uM pretreated with compound for 4 hrs followed by incubation with EGF for 10 mins by western blot analysis; assay type: toxicity, cell-based; settings: a549, 4.167 h, time 250 min
[10] = tested on: Mus musculus; assay: In vivo inhibition of EGFR L858R/T790M mutant in N-(3-((6-Fluoro-2-((4-(4-methylpiperazin-1-yl)phenyl)amino)quinazolin-4-yl)amino)phenyl)acrylamide-resistant human NCI-H1975 cells xenografted BALB/c mouse assessed as inhibition of AKT phosphorylation at Ser473 residue in tumor at 20 mg/kg/day, ip in presence of ACK1 inhibitor, dasatinib by immunoblot analysis; assay type: functional, organism-based
[11] = Toxicity in BALB/c mouse xenografted with human NCI-H1975 cells assessed as change in kidney morphological changes at 5 to 20 mg/kg/day, ip by hematoxylin-eosin staining based analysis; assay type: organism-based; settings: in vivo, dose 5-20 mg/kg/day
[12] = tested on: NCI-H1975; assay: Antitumor activity against N-(3-((6-Fluoro-2-((4-(4-methylpiperazin-1-yl)phenyl)amino)quinazolin-4-yl)amino)phenyl)acrylamide-resistant human NCI-H1975 cells xenografted in BALB/c mouse assessed as inhibition of tumor growth at 20 mg/kg/day, ip; assay type: functional, organism-based
[13] = tested on: A-431; assay: Inhibition of clonogenicity in human A-431 cells assessed as inhibition of colony formation at 0.1 to 10 uM incubated for 14 days by crystal violet staining based analysis; assay type: toxicity, cell-based; settings: a-431, 336 h, dose 0.1-10 µM, time 14 day
[14] = biological target: T1, Epidermal growth factor receptor; assay: Inhibition of wild type EGFR in human A-431 cells assessed as inhibition of EGF-induced EGFR phosphorylation at Tyr1068 residue at 0.1 to 10 uM pretreated with compound for 4 hrs followed by incubation with EGF for 10 mins by western blot analysis; assay type: toxicity, cell-based; settings: a-431, 4.167 h, dose 0.1-10 µM, time 250 min
[15] = biological target: Epidermal growth factor receptor (Homo sapiens, UniProt P00533, L858R/T790M); assay: Inhibition of human partial length EGFR (R669 to V1011 residues) L858R/T790M mutant expressed in mammalian expression system by KINOMEscan analysis
[16] = Toxicity in BALB/c mouse xenografted with human NCI-H1975 cells assessed as change in lung morphological changes at 5 to 20 mg/kg/day, ip by hematoxylin-eosin staining based analysis; assay type: organism-based; settings: in vivo, dose 5-20 mg/kg/day
[17] = tested on: Epidermal growth factor receptor (Homo sapiens), P00533 [L858R,T790M]; assay: Inhibition of EGFR L858R/T790M mutant in N-(3-((6-Fluoro-2-((4-(4-methylpiperazin-1-yl)phenyl)amino)quinazolin-4-yl)amino)phenyl)acrylamide-resistant human NCI-H1975 cells assessed as inhibition of EGF-induced AKT phosphorylation at Ser473 residue pretreated with compound and ACK1 inhibitor, AIM-100 for 4 hrs followed by incubation with EGF for 10 mins by western blot analysis; assay type: cell-based; settings: time 250.0 min
[18] = tested on: Mus musculus; assay: In vivo inhibition of EGFR L858R/T790M mutant in NCI-H1975 cells xenografted BALB/c mouse assessed as inhibition of EGFR phosphorylation at Tyr1068 residue in tumor at 20 mg/kg/day, ip by immunoblot analysis; assay type: functional, organism-based
[19] = tested on: A549; assay: Induction of apoptosis in human A549 cells assessed as induction of caspase-3 cleavage at 0.1 to 10 uM pretreated with compound for 4 hrs followed by incubation with EGF for 10 mins by western blot analysis; assay type: toxicity, cell-based; settings: a549, 4.167 h, dose 0.1-10 µM, time 250 min
[20] = tested on: Mus musculus; assay: In vivo inhibition of EGFR L858R/T790M mutant in ip dosed NCI-H1975 cells xenografted BALB/c mouse assessed as inhibition of EGFR phosphorylation at Tyr1068 residue in tumor by immunoblot analysis; assay type: functional, organism-based; settings: dose 5-20 mg/kg/day
[21] = GSH reactivity in PBS buffer assessed as half life by HPLC analysis; assay type: ADME; settings: PBS buffer with GSH
[22] = tested on: Mus musculus; assay: In vivo inhibition of EGFR L858R/T790M mutant in NCI-H1975 cells xenografted BALB/c mouse assessed as inhibition of ERK-1/2 phosphorylation in tumor at 20 mg/kg/day, ip by immunoblot analysis; assay type: functional, organism-based
[23] = tested on: NCI-H1975; assay: Antiproliferative activity against N-(3-((6-Fluoro-2-((4-(4-methylpiperazin-1-yl)phenyl)amino)quinazolin-4-yl)amino)phenyl)acrylamide-resistant human NCI-H1975 cells assessed as reduction in cell viability at compound:AIM100 concentration ratio of 3:1 to 1:3 measured after 72 hrs in presence of ACK1 inhibitor, AIM100 by MTT assay; assay type: functional, cell-based
[24] = tested on: A-431; assay: Induction of apoptosis in human A-431 cells assessed as induction of caspase-3 cleavage at 0.1 to 10 uM pretreated with compound for 4 hrs followed by incubation with EGF for 10 mins by western blot analysis; assay type: toxicity, cell-based; settings: a-431, 4.167 h, dose 0.1-10 µM, time 250 min
[25] = tested on: HCC827; assay: Induction of apoptosis in human HCC827 cells assessed as increase in caspase-3/7 activity at 0.1 to 10 uM incubated for 24 hrs by Caspase-Glo reagent based luminescence analysis; assay type: functional, cell-based; settings: dose 0.1-10 µM
[26] = tested on: HCC827; assay: Inhibition of clonogenicity in human HCC827 cells assessed as inhibition of colony formation incubated for 14 days by crystal violet staining based analysis; assay type: functional, cell-based; settings: dose 0.1-10 µM, time 14.0 day
[27] = tested on: NCI-H1975; assay: Antitumor activity against human NCI-H1975 cells xenografted in BALB/c mouse assessed as tumor regression at 10 mg/kg/day, po; assay type: functional, organism-based

C=CC(=O)Nc1cccc(Nc2nc(Nc3ccc(N4CCN(C)CC4)cc3)nc3ccc(F)cc23)c1
Not Active: inhibition (INH) [9] | inhibition (INH) [14]
inactive: Activity [12]
active: inhibition [1] | Activity [3] | inhibition [4] | inhibition [7] | Activity [8] | inhibition [10] | inhibition [17] | inhibition [18] | inhibition [20] Dose-Dependent Effect | inhibition [22] | Activity [23] | Activity [25] | inhibition [26] Dose-Dependent Effect
Non-Toxic: Activity [5] | Activity [11] | Activity [13] | Activity [16] | Activity [19] | Activity [24]
19 nM: IC50 [6]
72.9 h: half-life [21]
1%: Activity [2]
3.5 nM: IC50 [15]

C=CC(=O)Nc1cc(Nc2nccc(-c3cn(C)c4ccccc34)n2)c(OC)cc1N(C)CCN(C)C [OSIMERTINIB]
active: Activity [27]

From ChEMBL document CHEMBL5380860, “Design, Synthesis, and Antitumor Activity of Potent and Selective EGFR L858R/T790M Inhibitors and Identification of a Combination Therapy to Overcome Acquired Resistance in Models of Non-small-cell Lung Cancer” (J Med Chem, 2023)
